From US9920030B2 (priority 2006, dated 2018)

Experiments:
Type in all cases: in vivo
[1] = tested on: Plasmopara vilicola (the causal agent of grape downy mildew); assay: Test A: grape downy mildew, test suspension sprayed on grape seedlings after inoculation, visual disease rating
Summary of the method: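 Curative spray: spores applied first, plants kept 24 h in saturated air at 20 °C and dried before treatment, then 5 days at 20 °C plus 24 h saturated. Suspension: acetone (3% of volume) in 1:1 acetone/water, 250 ppm Trem 014, sprayed to run-off (200 ppm ≈ 500 g/ha); visual 0–100 control rating.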

[2] = tested on: Phytophthora infestans (the causal agent of tomato late blight); assay: whole plant or invertebrate
[3] = tested on: Phytophthora infestans (the causal agent of tomato late blight); assay: whole plant or invertebrate; remark: listed apart in the source
[4] = compounds without asterisk (application rate not given), 100 = 100% disease control, 0 = no control relative to the controls

| Compound | Percent Disease Control, Test A ([1]; * tested at 40 ppm) | Percent Disease Control, Test C ([2]; * tested at 40 ppm) | Percent Disease Control, Test B ([3]; * tested at 40 ppm) | Percent Disease Control, Test A [1, 4] | Percent Disease Control, Test C [2, 4] | Percent Disease Control, Test B [3, 4] |
| --- | --- | --- | --- | --- | --- | --- |
| Cc1cc(C(F)(F)F)nn1CC(=O)N1CCC(c2nc(C3=NOC4(CCCc5sccc54)C3)cs2)CC1 (stereo not drawn) [Compound 109] | 100% | 98% | 100% |  |  |  |
| Cc1cc(C(F)(F)F)nn1CC(=O)N1CCC(c2nc(C3=NOC(c4ccc(O)cc4)C3)cs2)CC1 (stereo not drawn) [Compound 110] | 97% | 99% | 100% |  |  |  |
| Cc1cc(C(F)(F)F)nn1CC(=O)N1CCC(c2nc(C3=NOC(c4cnccn4)C3)cs2)CC1 (stereo not drawn) [Compound 111] | 97% | 97% | 100% |  |  |  |
| Cc1cc(C(F)(F)F)nn1CC(=O)N1CCC(c2nc(C3=NOC(CN4Cc5cccc(Cl)c5S4(=O)=O)C3)cs2)CC1 (stereo not drawn) [Compound 112] | 76% | 68% | 100% |  |  |  |
| CC(=O)Oc1ccc(C2CC(c3csc(C4CCN(C(=O)Cn5nc(C(F)(F)F)cc5C)CC4)n3)=NO2)cc1 (stereo not drawn) [Compound 113] | 99% | 99% | 100% |  |  |  |
| Cc1cc(C(F)(F)F)nn1CC(=O)N1CCC(c2nc(C3=NOC(c4ccccc4C(F)(F)F)C3)cs2)CC1 (stereo not drawn) [Compound 114] | 100% | 99% | 100% |  |  |  |
| Cc1cc(C(F)(F)F)nn1CC(=O)N1CCC(c2nc(C3=NOC(c4cccc(C(F)(F)F)c4)C3)cs2)CC1 (stereo not drawn) [Compound 115] | 100% | 99% | 100% |  |  |  |
| COC(=O)CC1CC(c2csc(C3CCN(C(=O)Cn4nc(C(F)(F)F)cc4C)CC3)n2)=NO1 (stereo not drawn) [Compound 116] |  |  |  | 46% | 79% | 100% |
| Cc1cc(C(F)(F)F)nn1CC(=O)N1CCC(c2nc(C3=NOC(S(=O)(=O)c4ccccc4)C3)cs2)CC1 (stereo not drawn) [Compound 117] | 93% | 99% | 100% |  |  |  |
| Cc1cc(C(F)(F)F)nn1CC(=O)N1CCC(c2nc(C3=NC[C@@H](c4ccccc4)N3C)cs2)CC1 [Compound 118] | 0% | 16% | 87% |  |  |  |
| Cc1cc(C(F)(F)F)nn1CC(=O)N1CCC(c2nc(C3=N[C@@H](c4ccccc4)[C@@H](c4ccccc4)N3)cs2)CC1 [Compound 119] |  |  |  | 0% | 0% | 82% |
| Cc1cc(C(F)(F)F)nn1CC(=O)N1CCC(c2nc(-c3ccc(Cl)cc3)cs2)CC1 [Compound 120] |  |  |  | 99% | 0% | 88% |
| Cc1cc(C(F)(F)F)nn1CC(=O)N1CCC(c2nc(-c3ccccc3Cl)cs2)CC1 [Compound 121] |  |  |  | 83% | 0% | 47% |
| Cc1cc(C(F)(F)F)nn1CC(=O)N1CCC(c2nc(-c3ccc(C(F)(F)F)cc3)cs2)CC1 [Compound 122] |  |  |  | 99% | 0% | 46% |
